Measurements reported in the OligoGym collection.
“And” between values parts separate entries of the source, which are not always exact repeats. Equal values may be shown once. After the bases stand the sugars from the 5' end (letter, count) and the backbone: PS all phosphorothioate, else s phosphorothioate and o phosphodiester by linkage. Methylation of C is not given here. e = 2'-O-(2-methoxyethyl) (MOE); l = locked nucleic acid (LNA); d = 2'-deoxy (DNA)

Experiments:
[1] = target: DGAT2; settings: ASO
[2] = target: SNHG14; settings: ASO
[3] = Mouse Primary Neuronal Cell, 0.005 µM

Sequence | target mRNA inhibition ([2]; Human Neuronal Cell, 0.2 µM) | target mRNA inhibition ([2]; Human Neuronal Cell, 1 µM) | target mRNA inhibition ([2]; Human Neuronal Cell, 7.5 µM) | other results
GGCACCTGTTACTACATGTC (sugars e5 d10 e5, PS) | – | – | – | target mRNA inhibition ([1]; HepG2, 2.5 µM): 80% and 75%; target mRNA inhibition ([1]; HepG2, 10 µM): 94% and 89%
CTCCCACCTGAGTGCTGCAA (sugars e5 d10 e5, PS) | – | – | – | target mRNA inhibition ([1]; HepG2, 2.5 µM): 74%; target mRNA inhibition ([1]; HepG2, 10 µM): 90%
TGCAGCTTGGAGGAGGAGTA (sugars e5 d10 e5, PS) | – | – | – | target mRNA inhibition ([1]; HepG2, 0.12 µM): 36%
GATAGCATTGCCACTCCCAT (sugars e3 d14 e3, PS) | – | – | – | target mRNA inhibition ([1]; HepG2, 0.12 µM): 75%
TCTGGAACTTCTTCTGGACC (sugars e5 d10 e5, PS) | – | – | – | target mRNA inhibition ([1]; HepG2, 0.12 µM): 43%
TGCAGAAGGCACCCAGGCCC (sugars e5 d10 e5, PS) | – | – | – | target mRNA inhibition ([1]; HepG2, 0.12 µM): 46%
CACACCTATTATATAAT (sugars l4 d11 l2, PS) | 2% | 18% | – | –
AAATTGTCTACCTTCCT (sugars l2 d12 l3, PS) | 29% | 19% | – | –
GCACATTCTTTCTATAC (sugars l3 d12 l2, PS) | – | – | 52% | –
TTTATCAATATCTTCTCACT (sugars ldddddldddddddlddlll, PS) | – | – | 45% | –
CTTACCAATAGTTACCT (sugars l3 d11 l3, PS) | 49% | 54% | – | –
ATTGATTCAATTCCCTT (sugars ldddldddddddldlll, PS) | – | – | 62% | –
TTCTACTATACTTTCCTCT (sugars l1 d13 l1 d2 l2, PS) | – | – | 47% | –
ATCATTCTCAACAATTAAA (sugars llllldddddddlldldll, PS) | – | – | 41% | –
GCTCCATATTTAAATC (sugars l4 d10 l2, PS) | 7% | 20% | – | –
AACTGTTTATACCCTTT (sugars l4 d11 l2, PS) | 51% | 55% | – | –
GTTTATACCCTTTCCAAT (sugars ldldldddddddllddll, PS) | – | – | 39% | –
CTTTTAACCAGAGTGGC (sugars l4 d11 l2, PS) | – | – | 62% | –
CTGTATACACCATCCCA (sugars lddldddddddldddll, PS) | – | – | 55% | –
GCTAATTTAAATTTCC (sugars l4 d10 l2, PS) | 49% | 67% | – | –
CAGCTTTTAACCAGAGTG (sugars l3 d13 l2, PS) | – | – | 76% | –
TTTATCAATATCTTCTCA (sugars lldldldddddddlldll, PS) | – | – | 66% | –

Sequence | target mRNA inhibition ([2]; Human Neuronal Cell, 0.2 µM) | target mRNA inhibition ([2]; Human Neuronal Cell, 1 µM) | target mRNA inhibition ([2]; Human Neuronal Cell, 7.5 µM) | other results
GCACATTCTTTCTATAC (sugars ldldlddddddlddlll, PS) | – | – | 49% | –
CTAAGCTCCATATTTA (sugars l4 d10 l2, PS) | 21% | 42% | – | –
TTTATCAATATCTTCTCACT (sugars lddddlddddddddldddll, PS) | – | – | 34% | –
ATTGATTCAATTCCCTT (sugars l2 d11 l4, PS) | 62% | 69% | – | –
CTATTCCAGTTTAAAT (sugars l4 d10 l2, PS) | 33% | 44% | – | –
TTACACTTAATTATACTTCC (sugars ldllddldddddddldddll, PS) | – | – | 64% | –
AAATTATTTATACACCATCA (sugars lldlldldddddddldddll, PS) | – | – | 71% | –
TATTGATTCAATTCCCT (sugars lldddddddddldldll, PS) | – | – | 60% | –
TAAAATTATTTATACACCA (sugars llldllddddddlllldll, PS) | – | – | 7% | –
TCTTTCCATTTATTTCCATT (sugars l2 d4 l1 d11 l2, PS) | – | – | 48% | –
TTACCTACATCTCATACTT (sugars l3 d13 l3, PS) | -12% | -3% | – | target mRNA inhibition ([2]; Human Neuronal Cell, 5 µM): 13%; target mRNA inhibition [2, 3]: 86.7%
TATTGAACCAATTCTA (sugars l3 d10 l3, PS) | 34% | 47% | – | –
TTTATCAATATCTTCTCAC (sugars lldldlddddddddldlll, PS) | – | – | 63% | –
TTGATTCAATTCCCTTA (sugars lddllddddddllddll, PS) | – | – | 55% | –
CTTGCATTTCTAATTAC (sugars l3 d11 l3, PS) | 38% | 35% | – | –
TCATTGAACAACTCTTC (sugars l4 d11 l2, PS) | 31% | 17% | – | –
TATCTTTCCATTTATTTCCA (sugars l1 d2 l1 d14 l2, PS) | – | – | 45% | –
CCATTCTATCTGCCAAA (sugars l2 d11 l4, PS) | 54% | 69% | – | –
TCAAAGCACACCACCAC (sugars l2 d12 l3, PS) | 34% | 47% | – | –
ACTCTGCAATACACCAA (sugars lldlddddddddlldll, PS) | – | – | 65% | –
ATTGATTCAATTCCCTT (sugars ldllddddddddlddll, PS) | – | – | 74% | –
CACATCTTGTATACAA (sugars l3 d10 l3, PS) | 52% | 61% | – | –

Sequence | target mRNA inhibition ([2]; Human Neuronal Cell, 0.2 µM) | target mRNA inhibition ([2]; Human Neuronal Cell, 1 µM) | target mRNA inhibition ([2]; Human Neuronal Cell, 7.5 µM) | other results
CTTCCCTTTGATAACA (sugars l4 d10 l2, PS) | 12% | 32% | – | –
AGCAACATTATTAACCAC (sugars llldlddddddddlddll, PS) | – | – | 46% | –
CTTTGACATTCCATCTC (sugars l2 d11 l4, PS) | 52% | 59% | – | –
AAATCTCAACTACCATTTTT (sugars ldldddldddddddllldll, PS) | – | – | 14% | –
TCCTCTGCTTATAACTT (sugars l3 d12 l2, PS) | 53% | 62% | – | –
TTTTATACCTTTCTTTAACC (sugars ldlddddddddddlddllll, PS) | – | – | 64% | –
TGTCTATTCTCTTCATT (sugars l4 d11 l2, PS) | 37% | 30% | – | –
ACTGTTTATACCCTTTC (sugars ldlddddddddldldll, PS) | – | – | 63% | –
TACATCTCATACTTGC (sugars l2 d12 l2, PS) | 0% | -10% | – | target mRNA inhibition ([2]; Human Neuronal Cell, 5 µM): 8%; target mRNA inhibition [2, 3]: 80.8%
TATCAGTTATCCAATA (sugars l4 d10 l2, PS) | 42% | 51% | – | –
ATCTCATGACCACCTAA (sugars lddlldddddddldlll, PS) | – | – | 68% | –
ATCAATATCTTCTCAC (sugars l3 d10 l3, PS) | 54% | 62% | – | –
TTTACTCTGCAATACA (sugars l2 d10 l4, PS) | 45% | 60% | – | –
CTGTATACACCATCCCA (sugars ldddlddddddldddll, PS) | – | – | 29% | –
CTTCTTGTTTATCCCAA (sugars l2 d11 l4, PS) | 57% | 68% | – | –
ATATACCCAAAGGCACCT (sugars l3 d12 l3, PS) | -13% | 15% | – | target mRNA inhibition ([2]; Human Neuronal Cell, 5 µM): 21%
TTATAGCCATTCTATCT (sugars ldddldddddddlldll, PS) | – | – | 24% | –
TCCATGCTACATAAAC (sugars l4 d10 l2, PS) | 52% | 56% | – | –
TTATAGCCATTCTATCT (sugars ldlddddddddldllll, PS) | – | – | 49% | –
GTTTCCATCTACTATTAA (sugars llddldddddddldldll, PS) | – | – | 31% | –
TTTCCATTTATTTCCATTT (sugars lddddldddddddldllll, PS) | – | – | 54% | –
CCTACATCTCATACTT (sugars l2 d10 l4, PS) | – | – | – | target mRNA inhibition [2, 3]: 96.5%

Sequence | target mRNA inhibition ([2]; Human Neuronal Cell, 0.2 µM) | target mRNA inhibition ([2]; Human Neuronal Cell, 1 µM) | target mRNA inhibition ([2]; Human Neuronal Cell, 7.5 µM) | other results
TATACCTTTCTTTAACCCTT (sugars lddddlddddddddddldll, PS) | – | – | 61% | –
TATACCTTTCTTTAACCCT (sugars l2 d15 l2, PS) | 13% | 37% | – | –
AAAGATCATTCTCAACAA (sugars l1 d1 l1 d9 l6, PS) | – | – | 61% | –
TATCTTTGACATTCCAT (sugars l2 d11 l4, PS) | 48% | 52% | – | –
CTAAATAGATTCCACT (sugars l2 d10 l4, PS) | 26% | 52% | – | –
CAACATTATTAACCACCTT (sugars l3 d11 l2 d1 l2, PS) | – | – | 51% | –
TTTATACCTTTCTTTAACCC (sugars l1 d14 l1 d2 l2, PS) | – | – | 53% | –
TAGACTAATCCTCTTA (sugars l4 d10 l2, PS) | 48% | 56% | – | –
AGCAACATTATTAACCACC (sugars l1 d15 l3, PS) | – | – | 38% | –
AATTATTTATACACCATCAT (sugars llldllddddddddlddlll, PS) | – | – | 64% | –
TACACTTAATTATACTTCCA (sugars lddldldddddddlldddll, PS) | – | – | 55% | –
ATTTACACTTAATTATACTT (sugars llldlddddddddlldllll, PS) | – | – | 27% | –
TATTGATTCAATTCCCT (sugars ldlldddddddllldll, PS) | – | – | 19% | –
CAACATTATTAACCACCTT (sugars lldllddddddddddldll, PS) | – | – | 53% | –
TTTTTATACCTTTCTTTAAC (sugars lddldddddddddldlldll, PS) | – | – | 61% | –
ACTGTTTATACCCTTTC (sugars l2 d9 l1 d3 l2, PS) | – | – | 49% | –
TCTGTATACACCATCC (sugars l4 d10 l2, PS) | 61% | 68% | – | –
CAAAGATCATTCTCAAC (sugars l2 d2 l1 d6 l6, PS) | – | – | 18% | –
AGTTCTACTATACTTTCC (sugars l1 d2 l1 d12 l2, PS) | – | – | 43% | –
CACCAGTATTTCTTCTT (sugars l4 d11 l2, PS) | 31% | 27% | – | –
ATATTGATTCAATTCCC (sugars ldlddddddddlddlll, PS) | – | – | 67% | –
TCTTACTCTGACTTTCCA (sugars l2 d14 l2, PS) | 56% | 65% | – | –
